Results on one molecule are retold here after patent US20250170101A1, “MONOACYLGLYCEROL LIPASE INHIBITORS AND USE THEREOF FOR THE TREATMENT AND MANAGEMENT OF PAIN AND RELATED CONDITIONS” (Psy Therapeutics, Inc., priority 2021, published 2025).

A short description of data set [1]: Pharmacokinetic study of compounds in mice, Example 25. Format: in vivo, male C57BL/6 mice. The following applies: Brain, Oral, 5 mg/kg. The protocol: Healthy male C57BL/6 mice (8-12 weeks old) weighing between 17 to 35 g were procured from Global, India. Temperature and humidity were maintained at 22±3° C. and 30-70%, respectively and illumination was controlled to give a sequence of 12 hr light and 12 hr dark cycle. Temperature and humidity were recorded by auto-controlled data logger system. All the animals were provided laboratory rodent diet. Reverse osmosis water treated with ultraviolet light was provided ad libitum.
Protocol A: Twenty-four male mice were divided into two groups as; Group 1: 30 mg/kg/IP; Plasma and brain; Number of animals=12; Animal #1-12. Group 2: 30 mg/kg/PO; Plasma and brain; Number of animals=12; Animal #13-24. […] All samples were processed for analysis by protein precipitation using acetonitrile and analyzed with fit-for-purpose LC/MS/MS method (LLOQ—2.02 ng/mL for plasma and 6.06 ng/g for brain). Pharmacokinetic parameters were calculated using the non-compartmental analysis tool of Phoenix WinNonlin®.
Protocol B: Thirty six mice were included into the study and divided in to three groups as Group 1 (n=12), Group 2 (n=12) and Group 3 (n=12) with n=2 mice per time-point design. […] Plasma and brain samples were quantified by fit-for-purpose LC-MS/MS method (LLOQ: 1.01 ng/mL for plasma and 2.02 ng/mL for brain). […]

Data set [2] has as its target T1, MAGL enzyme (Homo sapiens, UniProt Q99685).
T1 sequence (Q99685 1-303): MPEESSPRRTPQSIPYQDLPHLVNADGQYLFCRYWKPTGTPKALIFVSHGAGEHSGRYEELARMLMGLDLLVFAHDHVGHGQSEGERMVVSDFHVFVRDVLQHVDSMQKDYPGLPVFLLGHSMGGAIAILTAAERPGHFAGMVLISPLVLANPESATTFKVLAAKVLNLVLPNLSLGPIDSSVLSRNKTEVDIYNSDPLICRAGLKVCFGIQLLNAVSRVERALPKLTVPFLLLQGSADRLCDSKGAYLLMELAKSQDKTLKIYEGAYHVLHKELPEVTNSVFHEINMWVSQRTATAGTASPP
The data set can be described thus: MAGL reversible inhibition assay (washout), Example 22. Also on record: % MAGL activity returning after washout: concentration or dose not given beside the values. The data set is classed as biochemical.

For the molecule `O=C(c1cc(O)ccc1F)N1CC2(CC(n3cc(C(F)(F)F)c(-c4ccccc4F)n3)C2)C1` (single isomer, unassigned) [Compound 473, (2-fluoro-5-hydroxyphenyl){6-[3-(o-fluorophenyl)-4-(trifluoromethyl)-1-pyrazolyl]-2-aza-2-spiro[3.3]heptyl}methanone], the “AUClast” value in data set [1] was 464.42 ng·h/mL. Further, in data set [2] (pre-washout compound concentration 1 μM), the “degree to which MAGL enzymatic activity returned following washout of test compounds” value came out at 41. Moreover, the “% MAGL activity returning after washout” value in data set [2] (relative to control (no inhibitor before washout), immediately following 30 minute washout) is under 50%.
